# Tested on: HA‐SlCaM3/4/5
# Type: binding, tomato (Solanum lycopersicum)
row,Molecule,effect on GFP-SFI5/HA-SlCaM3/4/5 association
1,"NCCCCCCNS(=O)(=O)c1cccc2c(Cl)cccc12 [Peptide W7, N‐(6‐aminohexyl)‐5‐chloro‐1‐naphthalene‐sulphonamide]",significantly inhibited by the presence of CaM antagonist and Ca^2+ channel blockers
2,EDTA,significantly inhibited by the presence of CaM antagonist and Ca^2+ channel blockers
3,LaCl3,significantly inhibited by the presence of CaM antagonist and Ca^2+ channel blockers
